Measured values: PubChem BioAssay AID1259407 (Chemical Carcinogenesis Research Information System (CCRIS), 2018)
Activity calls are given as the source filed them. How the calls were made is not given here.

System: CCRIS mutagenicity, Ames/micronucleus/aberration tests
Assay: CCRIS mutagenicity studies
Details: Test System: AMES SALMONELLA TYPHIMURIUM
[1] = Strain/Indicator: TA100, Metabolic Activation: NONE, Method: STANDARD PLATE
[2] = Strain/Indicator: TA100, Metabolic Activation: RAT, LIVER, S-9, AROCLOR 1254, Method: STANDARD PLATE
[3] = Strain/Indicator: TA1535, Metabolic Activation: NONE, Method: STANDARD PLATE
[4] = Strain/Indicator: TA1535, Metabolic Activation: RAT, LIVER, S-9, AROCLOR 1254, Method: STANDARD PLATE

| Compound | mutagenic call (Strain/Indicator: TA98, Metabolic Activation: NONE, Method: STANDARD PLATE) | mutagenic call (Strain/Indicator: TA98, Metabolic Activation: RAT, LIVER, S-9, AROCLOR 1254, Method: STANDARD PLATE) | mutagenic call [1] | mutagenic call [2] | mutagenic call [3] | mutagenic call [4] | mutagenic call (Strain/Indicator: TA1537, Metabolic Activation: NONE, Method: STANDARD PLATE) | mutagenic call (Strain/Indicator: TA1537, Metabolic Activation: RAT, LIVER, S-9, AROCLOR 1254, Method: STANDARD PLATE) | mutagenic call (Strain/Indicator: TA1538, Metabolic Activation: NONE, Method: STANDARD PLATE) | mutagenic call (Strain/Indicator: TA1538, Metabolic Activation: RAT, LIVER, S-9, AROCLOR 1254, Method: STANDARD PLATE) | mutagenic call (Strain/Indicator: TA98, Metabolic Activation: RAT LIVER S-9, CHLOROPHENE, Method: STANDARD PLATE (COMPOUND HEATED AT 250 DEGREES CELSIUS FOR 20 MIN)) | mutagenic call (Strain/Indicator: TA102, Metabolic Activation: NONE, Method: STANDARD PLATE) | mutagenic call (Strain/Indicator: TA102, Metabolic Activation: RAT, LIVER, S-9, AROCLOR 1254, Method: STANDARD PLATE) |
| --- | --- | --- | --- | --- | --- | --- | --- | --- | --- | --- | --- | --- | --- |
| CCOP(=O)(OCC)O/C(=C/Br)c1ccc(Cl)cc1Cl | inactive; negative | inactive; negative | inactive; negative | inactive; negative | inactive; negative | inactive; negative | inactive; negative | inactive; negative | inactive; negative | inactive; negative | – | – | – |
| C[C@@H](O)[C@H](N)C(=O)O | – | – | – | – | – | – | – | – | – | – | active; positive | – | – |
| CC(C)N(N)C(C)C | – | – | inactive; negative | inactive; negative | inactive; negative | active; positive | – | – | – | – | – | inactive; negative | inactive; negative |
